Measurements as given in US20130131065A1, “TREATMENT OF TYPE 2 DIABETES” (priority 2010, published 2013).

System: Rat pancreatic islets
Assay: Apoptosis (cytoplasmic nucleosomes, Cell Death Detection ELISA) in cultured rat pancreatic islets with or without cytokine cocktail
Type: cell-based
Protocol: Male Wistar rat islets (Elevage Janvier, Le Genest-St-Isle, France) were isolated using collagenase (Serva, Heidelberg, Germany) and cultured in RPMI at 11 mM glucose (Invitrogen, CA, USA) supplemented with 10% FCS (Fetal Calf Serum), 100 Units/ml penicillin, 100 μg/ml streptomycin and 100 μg/ml gentamycin in low-attachment 24-well plates (Corning, N.Y., USA). These islets were incubated with a cocktail of rat cytokines (TNF-alpha, IL-1beta and INF-gamma each at 2 ng/ml) for 24 hours (Brun T. et al., 2004 and 2007). […] Aliquots of the medium were used to measure insulin accumulated during the culture period using immune enzyme assay kits (Brunchwig, Basel, Switzerland). Furthermore, quantification of cytoplasmic nucleosomes, a direct indicator of apoptosis, was performed with the Cell Death Detection ELISA kit (Roche, Basel, Switzerland). Each condition was tested with 50 rat islets in duplicate and four independent experiments were performed. The results are provided as mean+/−sem and statistical analyses were performed using one-way ANOVA with Bonferroni and Dunnett post-hoc tests.
The conditions without cytokines allowed the analysis of the specific effect of the compound on islets while the combination of the drug with cytokines allowed the study of the effect of Imeglimin on islets under an inflammatory stress. To measure cell death in islets, quantification of cytoplasmic nucleosomes in islet cells, a consequence of DNA fragmentation during apoptosis (Robertson et al., 2000), was performed. […] Furthermore, a negative control and a positive control were added to the conditions with and without cytokines to test the effectiveness of the protocol. […] The results of the quantification of cell death for each condition are presented on FIG. 1.

[1] = with cytokines (each 2 ng/ml, 24 hours), Exendin-4 at 10 nM
[2] = with cytokines (TNF-alpha, IL-1beta, INF-gamma each 2 ng/ml, 24 hours), compound at 100 μM
[3] = with cytokines (each 2 ng/ml, 24 hours), compound at 1 mM

| Molecule | drop in apoptosis vs cytokine-stressed islets [1] | drop in apoptosis vs untreated islets [1] | decrease in cell death (vs untreated islets) (without cytokines, Exendin-4 at 10 nM, 24 hours) | protection of the islets from the cytokine stress (both doses (100 μM and 1 mM), cytokines each 2 ng/ml, 24 hours) | less apoptosis than cytokine-stressed islets [2] | less apoptosis than untreated islets [2] | protection: less apoptosis than cytokine-stressed islets [3] | protection: less apoptosis than untreated islets [3] | more potent than Exendin-4 (protective effect) (with cytokines, lower concentration tested (100 μM) vs Exendin-4 at 10 nM) | level of protection relative to the Exendin-4 level (without cytokines, compound at 100 μM vs Exendin-4 at 10 nM) | less apoptosis than untreated islets (without cytokines, compound at 100 μM, 24 hours) |
| --- | --- | --- | --- | --- | --- | --- | --- | --- | --- | --- | --- |
| Exendin-4 [reference compound] | 29% | 20% | 16% | – | – | – | – | – | – | – | – |
| CC1N=C(N)NC(N(C)C)=N1.Cl (single isomer, unassigned; (+)) [(+)-2-amino-3,6-dihydro-4-dimethylamino-6-methyl-1,3,5-triazine hydrochloride] | – | – | – | completely protected | 37% | 29% | 25% | 16% | ~50% | two thirds | 10% |
